# From PMC11472058, “Trinucleotide cap analogs with triphosphate chain modifications: synthesis, properties, and evaluation as mRNA capping reagents” (Nucleic Acids Research, 2024)
# Columns and labels:
# [1] = target: T1, Human Dcp2 (Homo sapiens, UniProt Q8IU60); experiment: RNA decapping assay with recombinant hDcp2; assay type: biochemical; conditions: fraction of decapped RNA after 30 min of incubation with hDcp2, 27-nt RNA capped with the analog, 37 °C; triplicates ± SD
# T1 construct: made in house; host or cells: E. coli
# Method: Human Dcp2 was expressed in E. coli and purified as described previously ([52]). Short 27 nt-capped RNAs (24.2 ng) were diluted with decapping buffer (50 mM Tris–HCl pH 8.0, 50 mM NH4Cl, 0.01% NP-40, 1 mM DTT, 5 mM MgCl2 and 2 mM MnCl2; 2.9 μl of freshly prepared 10 × Buffer) and the final volume was adjusted to 29 μl with ultrapure RNase free water. 4.2 ng (5 μl) of the solution was taken out as time zero reference and diluted with 5 μl loading dye (5 M urea, 44% formamide, 20 mM EDTA, 0.03% bromophenol blue, 0.03% xylene cyanol). The remaining RNAs (20 ng/24 μl) were subjected to 10 nM hDcp2 (250 nM, 1 μl) and the mixtures were incubated at 37°C for 1 h. At defined time points (5, 15, 30 and 60 min), 4 ng of RNA (5 μl) were taken out and the reactions were quenched by adding an equal volume of loading dye. RNAs were resolved electrophoretically on denaturing 15% acrylamide:bisacrylamide 19:1/7 M urea/1 × TBE gel, stained with SYBR Gold (Invitrogen) and visualized using a Typhoon FLA 9500 (GE Healthcare). The decapping progress was determined for each time point by densitometry analysis of the gels, as a ratio between the intensity of the band corresponding to capped RNA and the sum of the intensity of bands from capped and uncapped RNAs. The percentages of remaining capped RNA were then plotted as a function of time.
# The RNAs used to determine the capping efficiencies were also useful to study the susceptibility of capped RNA to decapping by hDcp2, the catalytic subunit of the major human mRNA decapping complex Dcp1/Dcp2, which releases m^7GDP and 5′-monophosphorylated RNA (in this case the 26-nt pApG-RNA24; Figure 4C). The progress of decapping at different time points (5, 15, 30 and 60 min) was monitored by HR-PAGE followed by densitometric analysis of the gels (Figure 4C, triplicates of gels are shown in Supplementary Figure S2), and the fraction of remaining capped RNA (27-nt) was plotted as a function of time (Figure 4D-G). […] For better visualization, the data of modified capped RNAs were grouped according to the type of modification present at the 5′ end and presented in separate graphs (Figure 4E–G). To quantify the relative susceptibility to hDcp2, we compared the decapping levels at the 30 min time point (Table 1). For RNAs capped with β-S-triphosphate analogs (1–6, Figure 4E, Table 1), we observed a significant difference in susceptibility to hDcp2 between RP and SP isomers, independent of the methylation pattern.
# [2] = test system: BALB/c mice; experiment: In vivo translation efficacy of FLuc-encoding mRNA-LNPs (whole body bioluminescence); conditions: 10 μg mRNA i.v., 4, 8 and 24 h
# Method: Two reporters were selected to determine in vivo protein production: firefly luciferase (FLuc) and human erythropoietin (hEPO). The mRNA encoding each gene was obtained by IVT using T7 RNA polymerase for co-transcriptional capping with m^7Gppp^5′SAmpG and m^7GpppAmpG as the reference cap structure. 500 μl or 1000 μl of the IVT mix (for obtaining mRNA encoding hEPO or FLuc, respectively) contained following components at indicated final concentration: transcription buffer with 2 mM spermidine and Bis-Tris pH 6.5, 1 U/μl RNase inhibitor (RiboLock, ThermoFisher Scientific), 5 mM ATP, CTP and UTP, 4 mM GTP, 10 mM DTT, 25 mM MgCl2, 0.002 U/μl inorganic pyrophosphatase (ThermoFisher Scientific), 10 mM m^7GpppAmpG or m^7Gppp^5’SAmpG, 40 ng/μl linearized plasmid as the DNA template and 0.125 μg/μl T7 RNA polymerase (in-house prepared). All components were gently mixed by pipetting and incubated for one hour at 37°C. After DNA template removal, obtained mRNA was initially purified using oligo(dT)25 resin, as previously described, and concentrated by ultrafiltration (Amicon Ultra-15 50K or 100K, Millipore) prior loading on preparative column. […] Eluate quality was analyzed on 1 × TBE 1.2% agarose gel, and the fractions containing mRNA of the highest purity were combined, desalted by ultrafiltration (Amicon Ultra-15 50K or 100K, Millipore), and precipitated. […]
smiles,measurement,setting,value
"CO[C@@H]1[C@H](OP(=O)(O)OC[C@H]2O[C@@H](n3cnc4c(=O)[nH]c(N)nc43)[C@H](O)[C@@H]2O)[C@@H](CSP(=O)([O-])OP(=O)(O)OP(=O)(O)OC[C@H]2O[C@@H](n3c[n+](C)c4c(O)nc(N)nc43)[C@H](O)[C@@H]2O)O[C@H]1n1cnc2c(N)ncnc21 [Compound 8, m^7Gppp^5’SAmpG]",Susceptibility to hDcp2 (@30 min),[1],0.64 ± 0.11
same,FLuc protein expression (whole body bioluminescence) versus m^7GpppAmpG-capped mRNA (in words),[2]; GeneVoy LNP,the effect was the opposite
same,FLuc protein expression (whole body bioluminescence) versus m^7GpppAmpG-capped mRNA (in words),[2]; SM-102 LNP,no significant differences
